Assay results taken from PMC9154192 (PLoS Biology, 2022).
≈ marks a conversion by molar mass, not a printed value. Where “and” joins values, the source holds several entries; their conditions need not be identical. Equal entries are not always repeated. Where two headings read alike, the source gives them in different places.

How the values were obtained:
[1] = system: M. tuberculosis H37Ra; test: microbe, parasite or virus in culture; assay type: cell-based, Mycobacterium tuberculosis; conditions: Mycobacterium tuberculosis, H37RA
[2] = system: M. tuberculosis H37Rv; assay type: cell-based, Mycobacterium tuberculosis; conditions: for RFU/200 μl (replicates1-3), single values / RFU/ml (×104) / RFU/200 μl (average): Fig 2A
[3] = system: XDR M. tuberculosis; assay type: cell-based, Mycobacterium tuberculosis
[4] = system: M. tuberculosis H37Rv; test: Luminescence-based microbial cell viability assay; parameters: species or system Mycobacterium tuberculosis; conditions: for RLU/50ul (replicates1-3), single values / RLU/ml (×100) / RLU/50ul (average): Fig 2C
[5] = system: M. tuberculosis H37Rv; assay type: cell-based, Mycobacterium tuberculosis; conditions: for CFU/ml (average) / CFU/ml, single values / Intracellular M. tuberculosis, % (Drug Free = 100.0): Fig 3A, H37Rv
[6] = system: M. tuberculosis H37Rv; assay type: in vivo, BALB/c mice; parameters: Efficacy in BALB/C mouse model of pulmonary tuberculosis, Average / Efficacy in BALB/C mouse model of pulmonary tuberculosis, values of mice 1-6: unit not given here; conditions: Fig 4C
[7] = in vitro; assay type: cell-based; conditions: human
Protocol: A549 human pulmonary epithelial cells (KCLB 10185), human embryonic kidney (HEK) 293 cells (KCLB 21573), human THP-1 leukemia cells (KCLB 40202), human neuroblastoma SH-SY5Y cells (KCLB 22266), Murine Raw 264.7 macrophages (KCLB 40071), and L929 murine fibroblasts (KCLB 10001) were purchased from the KCLB (Seoul, Korea). Cytotoxicity testing was performed using the MTT assay and the WST-1 cell viability assay as previously described.

[8] = system: M. abscessus; test: microbe, parasite or virus in culture; assay type: cell-based, Mycobacterium abscessus; conditions: Mycobacteroides abscessus
[9] = system: M. arupense; test: microbe, parasite or virus in culture; assay type: cell-based, Mycobacterium arupense; conditions: Mycolicibacter arupensis
[10] = system: M. aubagnense; test: microbe, parasite or virus in culture; assay type: cell-based, Mycobacterium aubagnense; conditions: Mycolicibacterium aubagnense
[11] = system: M. colombiense; test: microbe, parasite or virus in culture; assay type: cell-based; conditions: Mycobacterium colombiense
[12] = system: M. conceptionense; test: microbe, parasite or virus in culture; assay type: cell-based, Mycobacterium conceptionense; conditions: Mycolicibacterium senegalense
[13] = system: M. gilvum; test: microbe, parasite or virus in culture; assay type: cell-based, Mycobacterium gilvum; conditions: Mycolicibacterium gilvum
[14] = system: M. intracellulare; test: microbe, parasite or virus in culture; assay type: cell-based; conditions: Mycobacterium intracellulare
[15] = system: M. kyorinense; test: microbe, parasite or virus in culture; assay type: cell-based; conditions: Mycobacterium kyorinense
[16] = system: M. marinum; test: microbe, parasite or virus in culture; assay type: cell-based; conditions: Mycobacterium marinum
[17] = system: M. marseiliense; test: microbe, parasite or virus in culture; assay type: cell-based; conditions: Mycobacterium
[18] = system: M. neoaurum; test: microbe, parasite or virus in culture; assay type: cell-based, Mycobacterium neoaurum; conditions: Mycolicibacterium neoaurum
[19] = system: M. peregrinum; test: microbe, parasite or virus in culture; assay type: cell-based, Mycobacterium peregrinum; conditions: Mycolicibacterium peregrinum
[20] = system: M. phlei; test: microbe, parasite or virus in culture; assay type: cell-based, Mycobacterium phlei; conditions: Mycolicibacterium phlei
[21] = system: M. smegmatis; test: microbe, parasite or virus in culture; assay type: cell-based, Mycobacterium smegmatis; conditions: Mycolicibacterium smegmatis
[22] = system: M. szulgai; test: microbe, parasite or virus in culture; assay type: cell-based; conditions: Mycobacterium szulgai
[23] = system: M. xenopi; test: microbe, parasite or virus in culture; assay type: cell-based; conditions: Mycobacterium xenopi
[24] = drug conc. 0.39, average of each replicate set
[25] = drug conc. 0.78, average of each replicate set
[26] = drug conc. 1.56, average of each replicate set

COC(=O)[C@@H]1CCC(=O)N1Cc1cc2ccc(OC)cc2c2cc(OC)c(OC)cc12 [PP1S, (S)-N-[(2,3,6-Trimethoxy-10-phenanthryl)methyl]-pyroglutamic acid methyl ester]
MIC [1]: 1.6 µg/mL (≈ 3.78 µM)
RFU/200 μl (replicates1-3), single values ([2]; drug conc. 0.39): 59110 RFU/200 μl and 59240 RFU/200 μl and 59440 RFU/200 μl and 58960 RFU/200 μl and 59940 RFU/200 μl and 59150 RFU/200 μl and 59270 RFU/200 μl and 59190 RFU/200 μl and 59120 RFU/200 μl
RFU/ml (×104) ([2]; drug conc. 0.39): 29.6 RFU/ml (×104)
RFU/200 μl (average) [2, 24]: 59447 RFU/200 μl and 59203 RFU/200 μl and 59157 RFU/200 μl
RFU/200 μl (replicates1-3), single values ([2]; drug conc. 0.78): 53920 RFU/200 μl and 54090 RFU/200 μl and 54550 RFU/200 μl and 54830 RFU/200 μl and 54570 RFU/200 μl and 54130 RFU/200 μl and 54320 RFU/200 μl and 54040 RFU/200 μl and 53950 RFU/200 μl
RFU/ml (×104) ([2]; drug conc. 0.78): 27.1 RFU/ml (×104)
RFU/200 μl (average) [2, 25]: 54650 RFU/200 μl and 54163 RFU/200 μl and 53987 RFU/200 μl
RFU/200 μl (replicates1-3), single values ([2]; drug conc. 1.56): 29900 RFU/200 μl and 30040 RFU/200 μl and 30750 RFU/200 μl and 30860 RFU/200 μl and 30640 RFU/200 μl and 28310 RFU/200 μl and 28580 RFU/200 μl and 28120 RFU/200 μl and 29920 RFU/200 μl
RFU/ml (×104) ([2]; drug conc. 1.56): 14.8 RFU/ml (×104)
RFU/200 μl (average) [2, 26]: 30750 RFU/200 μl and 28337 RFU/200 μl and 29953 RFU/200 μl
concentration with significant antitubercular effect ([2]; fluorescence-based assay): 1.56 µg/mL
RFU/200 μl (replicates1-3), single values [3]: 28550 RFU/200 μl (2×) and 31600 RFU/200 μl and 31980 RFU/200 μl and 30880 RFU/200 μl and 29180 RFU/200 μl and 29520 RFU/200 μl and 28730 RFU/200 μl and 28570 RFU/200 μl and 47010 RFU/200 μl and 47100 RFU/200 μl and 48600 RFU/200 μl and 48210 RFU/200 μl and 50840 RFU/200 μl and 43460 RFU/200 μl and 43510 RFU/200 μl and 43540 RFU/200 μl and 47050 RFU/200 μl and 50580 RFU/200 μl and 50770 RFU/200 μl and 53600 RFU/200 μl and 53640 RFU/200 μl and 54810 RFU/200 μl and 45790 RFU/200 μl and 45690 RFU/200 μl and 45900 RFU/200 μl and 50680 RFU/200 μl
RFU/ml (×104) [3]: 14.9 RFU/ml (×104) and 23.3 RFU/ml (×104) and 25.1 RFU/ml (×104)
concentration with significant antitubercular effect [3]: 1.56 µg/mL and 0.78 µg/mL
RLU/50ul (replicates1-3), single values ([4]; drug conc. 0.39): 1910 RLU/50ul and 1870 RLU/50ul and 3370 RLU/50ul and 3410 RLU/50ul and 3790 RLU/50ul and 1810 RLU/50ul and 1790 RLU/50ul and 1970 RLU/50ul and 1850 RLU/50ul
RLU/ml (×100) ([4]; drug conc. 0.39): 483.8 RLU/ml (×100)
RLU/50ul (average) [4, 24]: 3523 RLU/50ul and 1857 RLU/50ul and 1877 RLU/50ul
RLU/50ul (replicates1-3), single values ([4]; drug conc. 0.78): 1380 RLU/50ul and 1580 RLU/50ul and 2750 RLU/50ul and 2760 RLU/50ul and 3450 RLU/50ul and 2020 RLU/50ul and 2180 RLU/50ul and 1970 RLU/50ul and 1410 RLU/50ul
RLU/ml (×100) ([4]; drug conc. 0.78): 433.3 RLU/ml (×100)
RLU/50ul (average) [4, 25]: 2987 RLU/50ul and 2057 RLU/50ul and 1457 RLU/50ul
RLU/50ul (replicates1-3), single values ([4]; drug conc. 1.56): 750 RLU/50ul and 850 RLU/50ul and 1460 RLU/50ul and 1290 RLU/50ul and 960 RLU/50ul and 1050 RLU/50ul and 1110 RLU/50ul and 1070 RLU/50ul and 790 RLU/50ul
RLU/ml (×100) ([4]; drug conc. 1.56): 207.3 RLU/ml (×100)
RLU/50ul (average) [4, 26]: 1237 RLU/50ul and 1077 RLU/50ul and 797 RLU/50ul
concentration with significant antitubercular effect ([4]; luminescence-based assay): 1.56 µg/mL
CFU/ml (average) ([5]; drug conc. 1.6): 26333 CFU/ml
CFU/ml, single values ([5]; drug conc. 1.6): 26400 CFU/ml and 26700 CFU/ml and 25900 CFU/ml
Intracellular M. tuberculosis, % (Drug Free = 100.0) ([5]; drug conc. 1.6): 78.3%
CFU/ml (average) ([5]; drug conc. 3.1): 21190 CFU/ml
CFU/ml, single values ([5]; drug conc. 3.1): 20900 CFU/ml and 22200 CFU/ml and 20470 CFU/ml
Intracellular M. tuberculosis, % (Drug Free = 100.0) ([5]; drug conc. 3.1): 63.0%
CFU/ml (average) ([5]; drug conc. 6.3): 15203 CFU/ml
CFU/ml, single values ([5]; drug conc. 6.3): 15200 CFU/ml and 14100 CFU/ml and 16310 CFU/ml
Intracellular M. tuberculosis, % (Drug Free = 100.0) ([5]; drug conc. 6.3): 45.2%
CFU/ml (average) ([5]; drug conc. 12.5): 8003 CFU/ml
CFU/ml, single values ([5]; drug conc. 12.5): 8000 CFU/ml and 7500 CFU/ml and 8510 CFU/ml
Intracellular M. tuberculosis, % (Drug Free = 100.0) ([5]; drug conc. 12.5): 23.8%
CFU/ml (average) ([5]; drug conc. 25): 707 CFU/ml
Intracellular M. tuberculosis, % (Drug Free = 100.0) ([5]; drug conc. 25): 2.1%
growth of M. tuberculosis in macrophages (CFU) ([5]; H37Rv in Raw 264.7 cells, 3 days, concentration-dependent): significantly inhibited the growth
Efficacy in BALB/C mouse model of pulmonary tuberculosis, Average ([6]; group dose 30, 6 mice): 2683333
Efficacy in BALB/C mouse model of pulmonary tuberculosis, Average ([6]; group dose 100, 6 mice): 1028333
CC50 ([7]; A549): > 500 µg/mL
CC50 ([7]; HEK-293): > 500 µg/mL
CC50 ([7]; SH-SY5Y): > 500 µg/mL
CC50 ([7]; THP-1): > 500 µg/mL
MIC [8]: > 100 µg/mL
MIC [9]: > 100 µg/mL
MIC [10]: > 100 µg/mL
MIC [11]: > 100 µg/mL
MIC [12]: > 100 µg/mL
MIC [13]: > 100 µg/mL
MIC [14]: > 100 µg/mL
MIC [15]: > 100 µg/mL
MIC [16]: > 100 µg/mL
MIC [17]: > 100 µg/mL
MIC [18]: > 100 µg/mL
MIC [19]: > 100 µg/mL
MIC [20]: > 100 µg/mL
MIC [21]: > 100 µg/mL
MIC [22]: > 100 µg/mL
MIC [23]: > 100 µg/mL
